pIC50: −log10 of the molar value. Calls of active or inactive are those of the source. No cut-off for these calls is given here. Peptide text beside a SMILES is read from it.
Columns and labels:
Glucagon receptor [1] = biological target: T1, Glucagon receptor (Homo sapiens, UniProt P47871); assay: Partial antagonist activity at human GCGR expressed in HEK293 cells assessed as inhibition of glucogon-induced cAMP production; assay type: functional, cell-based; conditions: filed as antagonist
[2] = biological target: Glucagon receptor (Rattus norvegicus) (UniProt P30082); assay: Displacement of 125I-glucagon from GCGR of rat liver membrane; assay type: cell membranes
Glucagon receptor [3] = biological target: T1, Glucagon receptor; assay: Antagonist activity at human GCGR expressed in HEK293 cells assessed as inhibition of glucogon-induced cAMP production by schild plot analysis; assay type: functional, cell-based; conditions: dose 0.1-1.6 µM
Glucagon receptor [4] = biological target: T1, Glucagon receptor; assay: Antagonist activity at human GCGR expressed in HEK293 cells assessed as inhibition of glucogon-induced cAMP production; assay type: functional, cell-based
Glucagon receptor [5] = biological target: T1, Glucagon receptor; assay: Displacement of 125I-glucagon from human GCGR expressed in HEK293 cells membranes incubated for 6 hrs by liquid scintillation counting method; assay type: cell membranes, Membrane
Glucagon receptor [6] = biological target: T1, Glucagon receptor; assay: Antagonist activity at human GCGR expressed in HEK293 cells assessed as inhibition of glucogon-induced cAMP production relative to control; assay type: functional, cell-based; conditions: filed as antagonist, concentration not given here
[7] = biological target: T2, Gastric inhibitory polypeptide receptor (Homo sapiens, UniProt P48546); assay: Antagonist activity at human GIPR expressed in HEK293 cells assessed as inhibition of GIP-induced cAMP production; assay type: functional, cell-based
T2 sequence (P48546 whole entry): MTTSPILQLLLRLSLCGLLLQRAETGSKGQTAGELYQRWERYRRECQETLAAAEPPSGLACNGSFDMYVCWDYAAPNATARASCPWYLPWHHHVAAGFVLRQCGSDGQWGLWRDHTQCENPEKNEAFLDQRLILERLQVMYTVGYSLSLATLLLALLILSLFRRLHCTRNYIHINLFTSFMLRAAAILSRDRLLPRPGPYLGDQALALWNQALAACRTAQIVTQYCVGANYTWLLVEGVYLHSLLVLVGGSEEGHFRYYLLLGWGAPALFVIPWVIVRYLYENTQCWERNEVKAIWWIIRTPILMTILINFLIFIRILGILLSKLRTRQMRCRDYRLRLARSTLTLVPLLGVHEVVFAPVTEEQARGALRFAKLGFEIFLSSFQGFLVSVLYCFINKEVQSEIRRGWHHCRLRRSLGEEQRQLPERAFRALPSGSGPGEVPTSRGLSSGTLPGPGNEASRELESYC

[8] = biological target: T3, Gastric inhibitory polypeptide receptor (Homo sapiens) (UniProt P48546); assay: Antagonist activity at human GIPR expressed in HEK293 cells assessed as inhibition of GIP-induced cAMP production relative to control; assay type: functional, cell-based; conditions: filed as antagonist, concentration not given here
T3 sequence (whole entry): T2 sequence (P48546 whole entry)

[9] = biological target: Glucagon-like peptide 1 receptor (Homo sapiens, UniProt P43220); assay: Antagonist activity at human GLP-1R expressed in HEK293 cells assessed as inhibition of GLP1-induced cAMP production; assay type: functional, cell-based
[10] = biological target: Glucagon receptor (Mus musculus) (UniProt Q61606); assay: Antagonist activity at mouse GCGR expressed in CHO-K1 cells assessed as inhibition of glucogon-induced cAMP production relative to control; assay type: functional, cell-based; conditions: filed as antagonist, concentration not given here
Glucagon receptor [11] = biological target: Glucagon receptor (Mus musculus, UniProt Q61606); assay: Antagonist activity at mouse GCGR expressed in CHO-K1 cells assessed as inhibition of glucogon-induced cAMP production; assay type: functional, cell-based
[12] = biological target: T4, Gastric inhibitory polypeptide receptor (Mus musculus, UniProt Q0P543); assay: Antagonist activity at mouse GIPR expressed in CHO-K1 cells assessed as inhibition of GIP-induced cAMP production; assay type: cell-based
T4 sequence (Q0P543 whole entry): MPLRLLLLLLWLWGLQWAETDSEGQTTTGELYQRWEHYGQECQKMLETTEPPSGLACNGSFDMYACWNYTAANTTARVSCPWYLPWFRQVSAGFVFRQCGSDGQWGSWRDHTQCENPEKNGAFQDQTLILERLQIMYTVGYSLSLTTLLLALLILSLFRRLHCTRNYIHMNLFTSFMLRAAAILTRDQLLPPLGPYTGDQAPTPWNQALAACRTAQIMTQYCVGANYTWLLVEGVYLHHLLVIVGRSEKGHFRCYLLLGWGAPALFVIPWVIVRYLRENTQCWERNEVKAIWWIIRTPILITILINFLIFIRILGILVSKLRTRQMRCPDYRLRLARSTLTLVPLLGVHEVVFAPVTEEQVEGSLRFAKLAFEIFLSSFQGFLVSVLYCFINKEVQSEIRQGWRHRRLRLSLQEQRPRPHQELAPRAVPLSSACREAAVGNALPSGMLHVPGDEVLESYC

[13] = biological target: T5, Gastric inhibitory polypeptide receptor (Mus musculus) (UniProt Q0P543); assay: Antagonist activity at mouse GIPR expressed in CHO-K1 cells assessed as inhibition of GIP-induced cAMP production relative to control; assay type: cell-based; conditions: filed as antagonist, concentration not given here
T5 sequence (whole entry): T4 sequence (Q0P543 whole entry)

[14] = biological target: T6, Glucagon-like peptide 1 receptor (Mus musculus, UniProt O35659); assay: Antagonist activity at mouse GLP1R expressed in CHO-K1 cells assessed as inhibition of GLP1-induced cAMP production; assay type: functional, cell-based
T6 sequence (O35659 whole entry): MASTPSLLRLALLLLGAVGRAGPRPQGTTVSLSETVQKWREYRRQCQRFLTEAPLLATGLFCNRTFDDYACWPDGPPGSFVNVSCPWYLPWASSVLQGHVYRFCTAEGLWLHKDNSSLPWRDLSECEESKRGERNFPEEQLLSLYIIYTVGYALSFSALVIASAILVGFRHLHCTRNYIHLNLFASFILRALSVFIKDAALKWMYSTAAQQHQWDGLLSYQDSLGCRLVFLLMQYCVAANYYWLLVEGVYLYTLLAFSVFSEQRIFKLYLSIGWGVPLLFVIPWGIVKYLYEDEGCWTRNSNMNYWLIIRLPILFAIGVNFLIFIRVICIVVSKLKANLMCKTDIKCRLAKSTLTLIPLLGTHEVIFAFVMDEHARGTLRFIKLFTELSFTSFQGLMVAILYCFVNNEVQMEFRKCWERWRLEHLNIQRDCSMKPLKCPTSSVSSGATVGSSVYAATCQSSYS

[15] = biological target: T7, Glucagon-like peptide 1 receptor (Mus musculus) (UniProt O35659); assay: Antagonist activity at mouse GLP1R expressed in CHO-K1 cells assessed as inhibition of GLP1-induced cAMP production relative to control; assay type: functional, cell-based; conditions: filed as antagonist, concentration not given here
T7 sequence (whole entry): T6 sequence (O35659 whole entry)

Mus musculus [16] = assay: Inhibition of IUB288-induced glucose elevation in C57BL/6 mouse at 1500 nmol/kg, sc pretreated for 4 to 8 hrs followed by IUB288 stimulation and measured upto 4 hrs; assay type: functional, organism-based; conditions: time 8-12 hrs
Mus musculus [17] = assay: Inhibition of IUB288-induced glucose elevation in C57BL/6 mouse at 1500 nmol/kg, sc pretreated for 24 hrs followed by IUB288 stimulation and measured upto 4 hrs; assay type: functional, organism-based; conditions: time 28.0 hrs
[18] = Toxicity in C57BL/6 mouse assessed as adverse local and systemic responses at 1500 nmol/kg, sc; conditions: in vivo
[19] = Half life in C57BL/6 mouse at 1500 nmol/kg, sc measured upto 48 hrs by LC-MS analysis; assay type: ADME, organism-based; conditions: in vivo
[20] = Cmax in C57BL/6 mouse at 1500 nmol/kg, sc measured upto 48 hrs by LC-MS analysis; assay type: ADME, organism-based; set-up: route subcutaneous, dose 1500 nmol/kg, time <=48; conditions: in vivo
[21] = AUC in C57BL/6 mouse at 1500 nmol/kg, sc measured upto 48 hrs by LC-MS analysis; assay type: ADME, organism-based; set-up: route subcutaneous, dose 1500 nmol/kg, time <=48; conditions: in vivo
[22] = Chemical stability of compound in PBS buffer incubated for 5 to 7 days by LC-MS analysis; assay type: physicochemical; conditions: time 5-7 day

T1 sequence (P47871 whole entry): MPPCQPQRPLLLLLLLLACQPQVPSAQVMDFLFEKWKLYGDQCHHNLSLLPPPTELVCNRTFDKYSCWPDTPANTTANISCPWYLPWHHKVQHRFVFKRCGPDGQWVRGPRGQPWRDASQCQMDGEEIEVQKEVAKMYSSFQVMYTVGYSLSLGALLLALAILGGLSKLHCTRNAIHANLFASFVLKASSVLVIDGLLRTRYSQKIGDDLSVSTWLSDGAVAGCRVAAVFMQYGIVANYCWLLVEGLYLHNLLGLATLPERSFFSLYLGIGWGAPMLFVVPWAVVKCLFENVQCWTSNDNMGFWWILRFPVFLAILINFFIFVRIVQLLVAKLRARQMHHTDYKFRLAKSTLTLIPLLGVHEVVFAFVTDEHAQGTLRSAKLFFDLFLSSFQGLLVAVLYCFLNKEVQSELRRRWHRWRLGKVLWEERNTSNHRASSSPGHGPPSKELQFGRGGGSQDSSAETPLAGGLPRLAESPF
Chain of Glucagon receptor (Rattus norvegicus) (P30082 whole entry): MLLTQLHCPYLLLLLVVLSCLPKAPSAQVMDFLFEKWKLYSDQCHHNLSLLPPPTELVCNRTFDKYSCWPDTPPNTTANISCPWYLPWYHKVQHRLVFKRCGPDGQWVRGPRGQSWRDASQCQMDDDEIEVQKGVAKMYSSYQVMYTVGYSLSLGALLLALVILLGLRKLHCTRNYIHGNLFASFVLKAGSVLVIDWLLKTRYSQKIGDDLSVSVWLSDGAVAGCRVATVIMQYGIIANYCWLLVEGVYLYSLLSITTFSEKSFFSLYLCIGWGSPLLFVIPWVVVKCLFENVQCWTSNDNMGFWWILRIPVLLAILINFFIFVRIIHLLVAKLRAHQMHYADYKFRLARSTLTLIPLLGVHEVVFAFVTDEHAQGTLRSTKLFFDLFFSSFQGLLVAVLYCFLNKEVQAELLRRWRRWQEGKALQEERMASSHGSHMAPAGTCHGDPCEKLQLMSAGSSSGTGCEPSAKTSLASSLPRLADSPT
Chain of Glucagon receptor (Mus musculus) (Q61606 whole entry): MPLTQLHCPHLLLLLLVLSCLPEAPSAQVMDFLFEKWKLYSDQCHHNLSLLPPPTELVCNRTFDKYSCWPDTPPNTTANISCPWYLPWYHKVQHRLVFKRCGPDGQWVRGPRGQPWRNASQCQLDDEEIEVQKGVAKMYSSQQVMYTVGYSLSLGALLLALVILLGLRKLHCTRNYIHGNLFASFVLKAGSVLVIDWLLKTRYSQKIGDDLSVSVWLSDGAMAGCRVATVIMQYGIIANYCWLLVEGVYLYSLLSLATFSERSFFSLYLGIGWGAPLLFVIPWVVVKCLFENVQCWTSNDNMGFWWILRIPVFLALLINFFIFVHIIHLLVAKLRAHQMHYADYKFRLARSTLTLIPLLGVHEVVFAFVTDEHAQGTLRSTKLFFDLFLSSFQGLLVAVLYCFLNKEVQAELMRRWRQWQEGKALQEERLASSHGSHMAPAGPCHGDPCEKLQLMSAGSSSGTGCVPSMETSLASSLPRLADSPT
Chain of Glucagon receptor (Mus musculus, UniProt Q61606) (Q61606 whole entry): as above
Chain of Glucagon-like peptide 1 receptor (Homo sapiens, UniProt P43220) (P43220 whole entry): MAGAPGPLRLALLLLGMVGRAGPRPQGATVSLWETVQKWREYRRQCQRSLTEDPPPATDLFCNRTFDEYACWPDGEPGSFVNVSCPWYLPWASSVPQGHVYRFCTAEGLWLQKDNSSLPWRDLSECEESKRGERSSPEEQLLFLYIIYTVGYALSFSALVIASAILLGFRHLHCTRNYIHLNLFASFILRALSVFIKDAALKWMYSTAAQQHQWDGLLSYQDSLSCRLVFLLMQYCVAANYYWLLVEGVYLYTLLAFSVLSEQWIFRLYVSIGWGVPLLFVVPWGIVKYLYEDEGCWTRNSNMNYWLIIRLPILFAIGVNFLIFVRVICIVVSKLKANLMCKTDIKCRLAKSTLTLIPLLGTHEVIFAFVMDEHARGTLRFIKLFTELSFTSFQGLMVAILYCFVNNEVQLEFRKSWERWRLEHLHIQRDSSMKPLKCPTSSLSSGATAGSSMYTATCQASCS

Compound: CSCC[C@H](NC(=O)[C@H](CC(C)C)NC(=O)[C@H](Cc1c[nH]c2ccccc12)NC(=O)[C@H](CCC(N)=O)NC(=O)[C@@H](NC(=O)[C@H](Cc1ccccc1)NC(=O)[C@H](CC(=O)O)NC(=O)[C@H](CCC(N)=O)NC(=O)[C@H](C)NC(=O)[C@H](CCCN=C(N)N)NC(=O)[C@H](CCCN=C(N)N)NC(=O)[C@H](CO)NC(=O)[C@H](CC(=O)O)NC(=O)[C@H](CC(C)C)NC(=O)[C@H](Cc1ccc(O)cc1)NC(=O)[C@H](CCCCN)NC(=O)[C@H](CO)NC(=O)[C@H](Cc1ccc(O)cc1)NC(=O)[C@H](CCC(=O)O)NC(=O)[C@H](CO)NC(=O)[C@@H](NC(=O)[C@H](Cc1ccccc1)NC(=O)[C@@H](NC(=O)CNC(=O)[C@H](CCC(N)=O)NC(=O)[C@@H](N)CO)[C@@H](C)O)[C@@H](C)O)C(C)C)C(=O)N[C@@H](CC(N)=O)C(=O)N[C@H](C(N)=O)[C@@H](C)O
- Activity (Glucagon receptor [1]): Active
- Activity ([2]; filed as antagonist): 41%
- Activity (Glucagon receptor [3]): inactive

Compound: CSCC[C@H](NC(=O)[C@H](CC(C)C)NC(=O)[C@H](Cc1c[nH]c2ccccc12)NC(=O)[C@H](CCC(N)=O)NC(=O)[C@@H](NC(=O)[C@H](Cc1ccccc1)NC(=O)[C@H](CC(=O)O)NC(=O)[C@H](CCC(N)=O)NC(=O)[C@H](C)NC(=O)[C@H](CCCNC(=N)N)NC(=O)[C@H](CCCNC(=N)N)NC(=O)[C@H](CO)NC(=O)[C@H](CC(=O)O)NC(=O)[C@H](CC(C)C)NC(=O)[C@H](Cc1ccc(O)cc1)NC(=O)[C@H](CCCCN)NC(=O)[C@H](CO)NC(=O)[C@H](Cc1ccc(O)cc1)NC(=O)[C@H](CCC(=O)O)NC(=O)[C@H](CO)NC(=O)[C@@H](NC(=O)[C@@H](O)Cc1ccccc1)[C@@H](C)O)C(C)C)C(=O)N[C@@H](CC(N)=O)C(=O)N[C@H](C(N)=O)[C@@H](C)O (HELM PEPTIDE1{[O=C([C@@H](O)Cc1ccccc1)[*:2]].T.S.E.Y.S.K.Y.L.D.S.R.R.A.Q.D.F.V.Q.W.L.M.N.T.[am]}$$$$V2.0)
- pIC50 (Glucagon receptor [4]): 7.40
- Activity (Glucagon receptor [3]; filed as antagonist): Dose-Dependent Effect

Compound: H-FTSEYSKYLDSRRAQDFVQWLMNT-NH2
- pIC50 (Glucagon receptor [4]): 7.10
- Activity (Glucagon receptor [3]; filed as antagonist): Dose-Dependent Effect

Compound: CSCC[C@H](NC(=O)[C@H](CC(C)C)NC(=O)[C@H](Cc1c[nH]c2ccccc12)NC(=O)[C@H](CCC(N)=O)NC(=O)[C@@H](NC(=O)[C@H](Cc1ccccc1)NC(=O)[C@H](CC(=O)O)NC(=O)[C@H](CCC(N)=O)NC(=O)[C@H](C)NC(=O)[C@H](CCCNC(=N)N)NC(=O)[C@H](CCCNC(=N)N)NC(=O)[C@H](CO)NC(=O)[C@H](CC(=O)O)NC(=O)[C@H](CC(C)C)NC(=O)[C@H](Cc1ccc(O)cc1)NC(=O)[C@H](CCCCN)NC(=O)[C@H](CO)NC(=O)[C@H](Cc1ccc(O)cc1)NC(=O)[C@H](CCC(=O)O)NC(=O)[C@H](CO)NC(=O)[C@@H](NC(=O)C(C)Cc1ccccc1)[C@@H](C)O)C(C)C)C(=O)N[C@@H](CC(N)=O)C(=O)N[C@H](C(N)=O)[C@@H](C)O (stereo partly specified) (HELM PEPTIDE1{[CC(Cc1ccccc1)C(=O)[*:2]].T.S.E.Y.S.K.Y.L.D.S.R.R.A.Q.D.F.V.Q.W.L.M.N.T.[am]}$$$$V2.0)
- pIC50 (Glucagon receptor [5]): 6.94
- pIC50 (Glucagon receptor [4]): 7.32

Compound: H-TSEYSKYLDSRRAQDFVQWLMNT-NH2
- pIC50 (Glucagon receptor [5]): 5.00
- Activity [2]: 0.33%

Compound: CCCCCCCCCCCCCCCC(=O)N[C@@H](CCC(=O)N[C@@H](CCC(=O)NCCCC[C@H](NC(=O)[C@H](CC(=O)O)NC(=O)[C@H](CO)NC(=O)[C@@H](NC(=O)[C@@H](O)Cc1ccccc1)[C@@H](C)O)C(=O)N[C@@H](CO)C(=O)N[C@@H](CCCCN)C(=O)N[C@@H](Cc1ccc(O)cc1)C(=O)N[C@@H](CC(C)C)C(=O)N[C@@H](CC(=O)O)C(=O)N[C@@H](CO)C(=O)N[C@@H](CCCNC(=N)N)C(=O)N[C@@H](CCCNC(=N)N)C(=O)N[C@@H](C)C(=O)N[C@@H](CCC(N)=O)C(=O)N[C@@H](CC(=O)O)C(=O)N[C@@H](Cc1ccccc1)C(=O)N[C@H](C(=O)N[C@@H](CCC(N)=O)C(=O)N[C@@H](Cc1c[nH]c2ccccc12)C(=O)N[C@@H](CC(C)C)C(=O)N[C@@H](CCSC)C(=O)N[C@@H](CC(=O)O)C(=O)N[C@H](C(N)=O)[C@@H](C)O)C(C)C)C(=O)O)C(=O)O (HELM PEPTIDE1{[O=C([C@@H](O)Cc1ccccc1)[*:2]].T.S.D.K.S.K.Y.L.D.S.R.R.A.Q.D.F.V.Q.W.L.M.D.T.[am]}|PEPTIDE2{[CCCCCCCCCCCCCCCC(=O)[*:2]].[gGlu].[gGlu]}$PEPTIDE1,PEPTIDE2,5:R3-3:R2$$$V2.0)
- pIC50 (Glucagon receptor [4]): 9.37
- inhibition (Glucagon receptor [6]): 100%
- pIC50 [7]: 7.22
- inhibition [8]: 96%
- pIC50 [9]: 7.00
- inhibition [10]: 92%
- pIC50 (Glucagon receptor [11]): 9.28
- pIC50 [12]: 6.90
- inhibition [13]: 97%
- pIC50 [14]: 6.88
- inhibition [15]: 99%
- inhibition (Mus musculus [16]): Active
- inhibition (Mus musculus [17]): Active
- Activity [18]: Non-Toxic
- half-life [19]: 6.73 h
- Cmax [20]: 3.31 µM
- AUC at 48 h [21]: 37.4 µM·h
- Stabilty [22]: Stable

Compound: H-LTFTSEYSKYLDSRRAQDFVQWLMNT-NH2
- Activity (Glucagon receptor [1]): Active
- Activity (Glucagon receptor [3]): inactive

— ChEMBL document CHEMBL4808176, “Optimization of Truncated Glucagon Peptides to Achieve Selective, High Potency, Full Antagonists” (J Med Chem, 2021)
